Patent EP1203770A1 (priority 1992, dated 1994)
Where two headings read alike, the source gives them in different places.

Molecular target: T1, HIV-1 protease (Human immunodeficiency virus type 1 group M subtype B, UniProt P04585)
T1 construct: The protease (or proteinase), consisting of only 99 amino acids, is among the smallest enzymes known
Experiment: In vitro HIV protease inhibitory assay (HIV Protease FITC Assay)
Type: biochemical
Details: for Ki: read-out: HIV-1 FITC Ki
In short: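 Percent inhibition was read as fluorescence after avidin-bead capture and filtration separated FITC cleavage product from biotinylated substrate. Enzyme and substrate reacted 1 h, RT, dark, at pH 5.5 (0.1 M sodium acetate, 1.0 M NaCl, 0.05% NP-40).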

[1] = HIV-1 Dose 0.123 uM, read-out: HIV-1 Protease % Inhib
[2] = HIV-1 Dose 0.370 uM, read-out: HIV-1 Protease % Inhib
[3] = HIV-1 Dose 1.100 uM, read-out: HIV-1 Protease % Inhib
[4] = HIV-1 Dose 3.300 uM, read-out: HIV-1 Protease % Inhib
[5] = HIV-1 Dose 10.000 uM, read-out: HIV-1 Protease % Inhib
[6] = HIV-1 Dose 30.000 uM, read-out: HIV-1 Protease % Inhib
[7] = read-out: HIV-1 Protease % Inhib

Row | Structure (SMILES) | inhibition at 0.123 µM [1] | inhibition at 0.37 µM [2] | inhibition at 1.1 µM [3] | inhibition at 3.3 µM [4] | inhibition at 10 µM [5] | inhibition at 30 µM [6] | inhibition at 100 µM (HIV-1 Dose 100.000 uM, read-out: HIV-1 Protease % Inhib) | inhibition at 0.123 µM [7] | inhibition at 0.37 µM [7] | inhibition at 1.1 µM [7] | inhibition at 3.3 µM [7] | inhibition at 10 µM [7] | inhibition at 30 µM [7] | Ki
1 | O=c1oc(CCc2nnnn2C2CCCCC2)cc(O)c1C(c1ccccc1)C1CC1 (stereo not shown) [Example 119, 6-[2-(1-Cyclohexyl-1H-tetrazol-5-yl)-ethyl]-3-(cyclopropyl-phenyl-methyl)-4-hydroxy-2-one] | < 10% | < 10% | < 10% | < 10% | 20.7% | 60.3% | – | – | – | – | – | – | – | –
2 | CCC(C1=C(O)CC(Cc2ccccc2)(Cc2ccccc2)OC1=O)c1ccccc1 (stereo not shown) [Example 120, 6,6-Dibenzyl-4-hydroxy-3-(1-phenyl-propyl)-5,6-dihydro-pyran-2-one] | < 10% | < 10% | 10.1% | 26.2% | 46.4% | 60.1% | – | – | – | – | – | – | – | –
3 | C=CC(C1=C(O)CC2(CCOCC2)OC1=O)c1ccccc1 (stereo not shown) [Example 121, 4-Hydroxy-3-(1-phenyl-allyl)-1,9-dioxa-spiro[5.5]undec-3-en-2-one] | < 10% | < 10% | < 10% | 10.8% | 40.2% | 68.5% | – | – | – | – | – | – | – | –
4 | Cc1cc(O)c(CC=Cc2ccccc2)c(=O)o1 [Example 122, 4-Hydroxy-6-methyl-3-(3-phenyl-prop-2-enyl)-2H-Pyran-2-one] | – | – | – | – | – | – | 26% | – | – | – | – | – | – | –
5 | CCC(C1=C(O)CC2(CCC(=O)CC2)OC1=NO)c1ccccc1 (stereo not shown) [Example 123, 4-Hydroxy-3-(1-phenyl-propyl)-1-oxa-spiro[5.5]undec-3-ene-2,9-dione monooxime] | < 10% | < 10% | < 10% | 14.8% | 39.6% | 72% | – | – | – | – | – | – | – | –
6 | CCC(Cc1ccccc1)c1cc(O)c(C2(c3ccccc3)CCC2)c(=O)o1 (stereo not shown) [Example 124, 4-Hydroxy-3-(1-phenylcyclobutyl)-6-[1-(phenylmethyl)propyl]-2H-pyran-2-one] | < 10% | < 10% | < 10% | 27.5% | 53.4% | 64.8% | – | – | – | – | – | – | – | –
7 | C=CC(C1=C(O)CC2(CCCCCCC2)OC1=O)c1ccccc1 (stereo not shown) [Example 125, 4-Hydroxy-3-(1-phenyl-2-propenyl)-1-oxaspiro[5.7]tridec-3-en-2-one] | < 10% | < 10% | 15.4% | 45.7% | 71% | 89.7% | – | – | – | – | – | – | – | –
8 | CCC(C1=C(O)CC2(CCCCCCC2)OC1=O)c1ccccc1 (stereo not shown) [Example 126, 4-Hydroxy-3-(1-phenylpropyl)-1-oxaspiro[5.7]tridec-3-en-2-one] | – | – | – | – | – | – | – | < 10% | < 10% | 13.2% | 42.9% | 66.8% | 81% | –
9 | C=CC(C1=C(O)CC2(CCCCCC2)OC1=O)c1ccccc1 (stereo not shown) [Example 127, 4-Hydroxy-3-(1-phenylallyl)-1-oxa-spiro[5.6]-dodec-3-en-2-one] | < 10% | 14.4% | 38.4% | 65.6% | 98.9% | 102% | – | – | – | – | – | – | – | –
10 | C=CC(C1=C(O)CC2(CCCC2)OC1=O)c1ccccc1 (stereo not shown) [Example 128, 4-Hydroxy-3-(1-phenylallyl)-1-oxa-spiro[5.4]-dec-3-en-2-one] | < 10% | < 10% | 18.5% | 46.8% | 79.8% | 95.7% | – | – | – | – | – | – | – | –
11 | C=CC(C1=C(O)CC2(CCCCC2Cc2ccccc2)OC1=O)c1ccccc1 (stereo not shown) [Example 129, 7-Benzyl-4-hydroxy-3-(1-phenylallyl)-1-oxa-spire[5.5]undec-3-en-2-one] | – | – | – | – | – | – | – | < 10% | < 10% | 43.5% | 67.1% | 80.7% | 83.4% | –
12 | CCC(C1=C(O)CC2(CCCC2)OC1=O)c1ccccc1 (stereo not shown) [Example 130, 4-Hydroxy-3-(1-phenylpropyl)-1-oxa-spiro[5.4]-dec-3-en-2-one] | < 10% | < 10% | < 10% | < 10% | < 10% | 13.1% | – | – | – | – | – | – | – | –
13 | CCC(CCN1CCOCC1)c1cc(O)c(C(c2ccccc2)C2CC2)c(=O)o1 (stereo not shown) [Example 131, 3-(Cyclopropylphenylmethyl)-6-[1-ethyl-3-(4-morpholinyl)propyl]-4-hydroxy-2H-pyran-2-one] | < 10% | < 10% | < 10% | < 10% | 13.2% | 45.9% | – | – | – | – | – | – | – | –
14 | CCC(CC(=O)OCc1ccccc1)c1cc(O)c(C(c2ccccc2)C2CC2)c(=O)o1 (stereo not drawn) [Example 132, 3-(Cyclopropylphenylmethyl)-β-ethyl-4-hydroxy-2-oxo-, phenylmethyl ester 2H-pyran-6-propanoic acid] | < 10% | < 10% | 29.1% | 70.2% | 87.6% | 110% | – | – | – | – | – | – | – | –
15 | CC(C)C(Cc1ccccc1)c1cc(O)c(C(c2ccccc2)C2CC2)c(=O)o1 (stereo not shown) [Example 133, 3-(Cyclopropylphenylmethyl)4-hydroxy-6-[2-methyl-1-(phenylmethyl)propyl]-2H-pyran-2-one] | 20.6% | 49.6% | 74.3% | 95.9% | 110% | 102% | – | – | – | – | – | – | – | 40 nM
16 | CC(C)C(CC1CCCOC1)c1cc(O)c(C(c2ccccc2)C2CC2)c(=O)o1 (stereo not shown) [Example 134, 3-(Cyclopropylphenylmethyl)-4-hydroxy-6-[2-methyl-1-[(tetrahydro-2H-pyran-3-yl)methyl]propyl]-2H-pyran-2-one] | 21.1% | 57.5% | 83.1% | 99.7% | 111% | 106% | – | – | – | – | – | – | – | 24 nM
17 | CCC(CCC(F)(F)F)c1cc(O)c(C(c2ccccc2)C2CC2)c(=O)o1 (stereo not shown) [Example 136, 3-(Cyclopropylphenylmethyl)-6-(1-ethyl-4,4,4-trifluorobutyl)-4-hydroxy-2H-pyran-2-one] | < 10% | 24.5% | 62.4% | 91.3% | 99.1% | 99.7% | – | – | – | – | – | – | – | 52 nM
18 | CCC(CC1CCCN(S(=O)(=O)c2ccc(C)cc2)C1)c1cc(O)c(C(c2ccccc2)C2CC2)c(=O)o1 (stereo not shown) [Example 137, 3-[2-[3-(Cyclopropylphenylmethyl)-4-hydroxy-2-oxo-2H-pyran-6-yl]butyl]-1-[(4-methylphenyl)sulfonyl]-piperidine] | < 10% | < 10% | 23% | 57.2% | 80.2% | 79.7% | – | – | – | – | – | – | – | –
19 | CCC(CC1CCCN1S(=O)(=O)c1ccc(C)cc1)c1cc(O)c(C(c2ccccc2)C2CC2)c(=O)o1 (stereo not shown) [Example 138, 2-[2-[3-(Cyclopropylphenylmethyl)-4-hydroxy-2-oxo-2H-pyran-6-yl]butyl]-1-[(4-methylphenyl)sulfonyl]-pyrrolidine] | < 10% | < 10% | 24.8% | 63.9% | 83.3% | 81.1% | – | – | – | – | – | – | – | –
20 | O=c1oc(CCC(F)(F)F)cc(O)c1C(c1ccccc1)C1CC1 (stereo not shown) [Example 139, 3-(Cyclopropylphenylmethyl)-4-hydroxy-6-(3,3,3-trifluoropropyl)-2H-pyran-2-one] | < 10% | < 10% | < 10% | 27.9% | 58% | 67.1% | – | – | – | – | – | – | – | –
21 | CCC(CC1CCCCN1S(=O)(=O)c1ccc(C)cc1)c1cc(O)c(C(c2ccccc2)C2CC2)c(=O)o1 (stereo not shown) [Example 140, 2-[2-(3-(Cyclopropylphenylmethyl)-4-hydroxy-2-oxo-2H-pyran-6-yl]butyl]-1-[(4-methylphenyl)sulfonyl]-piperidine] | < 10% | 10.5% | 38.6% | 70.2% | 81.6% | 77.1% | – | – | – | – | – | – | – | –
22 | CCC(CC1CCN(S(=O)(=O)c2ccc(C)cc2)CC1)c1cc(O)c(C(c2ccccc2)C2CC2)c(=O)o1 (stereo not shown) [Example 141, 4-[2-[3-(Cyclopropylphenylmethyl)-4-hydroxy-2-oxo-2H-pyran-6-yl]butyl]-1-[(4-methylphenyl)sulfonyl]-piperidine] | < 10% | < 10% | < 10% | < 10% | 11.2% | 17% | – | – | – | – | – | – | – | –
23 | CCC(CC1CC(=O)N(Cc2ccccc2)C1)c1cc(O)c(C(c2ccccc2)C2CC2)c(=O)o1 (stereo not shown) [Example 142, 4-[2-[3-(Cyclopropylphenylmethyl)-4-hydroxy-2-oxo-2H-pyran-6-yl]butyl]-1-(phenylmethyl)-2-pyrrolidinone] | < 10% | < 10% | 26.9% | 64.3% | 88.7% | 104% | – | – | – | – | – | – | – | –
